From ChEMBL document CHEMBL1800012, “Optimisation of a novel series of selective CNS penetrant CB(2) agonists” (Bioorg Med Chem Lett, 2011)

Assays:
Cannabinoid receptor 2 [1] = molecular target: T1, Cannabinoid receptor 2 (Homo sapiens, UniProt P34972); test: Agonist activity at human recombinant CB2 receptor expressed in CHO cells assessed as inhibition forskolin-induced cAMP release; assay type: functional, cell-based
[2] = Intrinsic clearance in human liver microsomes; assay type: ADME, Microsome
[3] = Intrinsic clearance in rat liver microsomes; assay type: ADME, Microsome
Cannabinoid receptor 2 [4] = molecular target: T1, Cannabinoid receptor 2; test: Agonist activity at human recombinant CB2 receptor expressed in CHO cells assessed as inhibition forskolin-induced cAMP release relative to control; assay type: functional, cell-based
Cannabinoid receptor 1 [5] = molecular target: T2, Cannabinoid receptor 1 (Homo sapiens, UniProt P21554); test: Binding affinity at human CB1 receptor
[6] = Oral bioavailability in rat; assay type: ADME, organism-based; conditions: in vivo
Rattus norvegicus = species on record: Rattus norvegicus; test: Ratio of unbound drug level in brain to plasma in rat relative to control; assay type: ADME, organism-based; conditions: in vivo
Cannabinoid receptor 1 [7] = molecular target: T2, Cannabinoid receptor 1; test: Agonist activity at human CB1 receptor by functional assay
[8] = Clearance in rat at 1 mg/kg, iv; assay type: ADME, organism-based; design: dose 1 mg/kg, route intravenous; conditions: in vivo
[9] = Volume of distribution in rat at 1 mg/kg, iv; assay type: ADME, organism-based; design: dose 1 mg/kg, route intravenous; conditions: in vivo
[10] = Half life in rat at 1 mg/kg, iv; assay type: ADME, organism-based; design: dose 1 mg/kg, route intravenous; conditions: in vivo
[11] = Ratio of unbound drug level in brain to plasma in rat; assay type: ADME, organism-based; conditions: brain and plasma, read-out: BPR

T1 sequence (P34972 whole entry): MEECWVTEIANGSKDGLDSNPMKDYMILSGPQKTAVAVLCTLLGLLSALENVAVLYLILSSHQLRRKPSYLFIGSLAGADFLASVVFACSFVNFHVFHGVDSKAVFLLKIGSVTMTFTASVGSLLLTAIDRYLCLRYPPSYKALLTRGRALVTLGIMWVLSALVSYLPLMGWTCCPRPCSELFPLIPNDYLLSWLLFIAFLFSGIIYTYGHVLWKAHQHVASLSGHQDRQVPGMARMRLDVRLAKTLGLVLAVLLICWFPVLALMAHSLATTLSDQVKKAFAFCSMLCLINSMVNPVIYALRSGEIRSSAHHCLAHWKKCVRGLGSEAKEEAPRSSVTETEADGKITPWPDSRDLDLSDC
T2 sequence (P21554 whole entry): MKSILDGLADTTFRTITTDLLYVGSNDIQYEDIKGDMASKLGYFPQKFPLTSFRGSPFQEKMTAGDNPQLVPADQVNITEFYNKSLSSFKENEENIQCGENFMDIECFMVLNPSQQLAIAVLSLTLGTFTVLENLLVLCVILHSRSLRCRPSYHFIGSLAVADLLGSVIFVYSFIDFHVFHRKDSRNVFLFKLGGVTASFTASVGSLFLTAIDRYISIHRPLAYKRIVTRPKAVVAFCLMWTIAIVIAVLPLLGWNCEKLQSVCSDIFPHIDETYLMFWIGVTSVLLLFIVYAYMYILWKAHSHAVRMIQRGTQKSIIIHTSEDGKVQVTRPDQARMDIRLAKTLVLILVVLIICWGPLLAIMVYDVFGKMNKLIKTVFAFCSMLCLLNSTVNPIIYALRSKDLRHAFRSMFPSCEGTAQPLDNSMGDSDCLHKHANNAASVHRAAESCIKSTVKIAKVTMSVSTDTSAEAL

Row | SMILES | EC50 (Cannabinoid receptor 2 [1]) | microsomal CLint [2] | microsomal CLint [3] | also measured
1 | CCS(=O)(=O)c1ccc2c(c1)nc(C1(C)CCCC1)n2CC1CC1 | 9.6 nM | 42 µL/min/mg | 106 µL/min/mg | 
2 | CC(C)(C)Cc1nc2cc(S(=O)(=O)C(C)(C)C)ccc2n1CC1CC1 | 0.43 nM | 38 µL/min/mg |  | 
3 | CCS(=O)(=O)c1ccc2c(c1)nc(C(C)C)n2CC1CC1 | 132 nM |  |  | 
4 | CC(C)(C)Cc1nc2cc(S(=O)(=O)Cc3ccccc3)ccc2n1CC1CC1 | 6.5 nM | 276 µL/min/mg | 369 µL/min/mg | 
5 | CCS(=O)(=O)c1ccc2c(c1)nc(CC1CC1)n2CC1CC1 | 425 nM |  |  | Emax (Cannabinoid receptor 2 [4]): 79%
6 | CCS(=O)(=O)c1ccc2c(c1)nc(C(C)(C)C)n2CCN(C)C | 39 nM | 8 µL/min/mg | 8.5 µL/min/mg | 
7 | CCCc1nc2cc(S(=O)(=O)CC)ccc2n1CC1CC1 | 199 nM | 43 µL/min/mg | 34 µL/min/mg | 
8 | CCS(=O)(=O)c1ccc2c(c1)nc(C1(C)CC1)n2CC1CC1 | 51 nM | 8 µL/min/mg | 11 µL/min/mg | 
9 | CCS(=O)(=O)c1ccc2c(c1)nc(C(C)(C)C)n2CCOC(F)(F)F | 5.3 nM | 7 µL/min/mg | 19 µL/min/mg | 
10 | CN(C)CCn1c(CC(C)(C)C)nc2cc(S(=O)(=O)CC(C)(C)O)ccc21 | 12 nM | < 7 µL/min/mg | < 11.2 µL/min/mg | Ki (Cannabinoid receptor 1 [5]): > 19400 nM; bioavailability [6]: 21%; BPR (Rattus norvegicus): < 1%
11 | CCS(=O)(=O)c1ccc2c(c1)nc(C(C)(C)C)n2C1CC1 | 106 nM | 8 µL/min/mg | 8.5 µL/min/mg | 
12 | CC(C)(C)Cc1nc2cc(S(=O)(=O)C(C)(C)CO)ccc2n1CC1CC1 | 1.2 nM | < 7 µL/min/mg | 54 µL/min/mg | 
13 | CCS(=O)(=O)c1ccc2c(c1)nc(CCC(C)C)n2CC1CC1 | 67 nM |  |  | Emax (Cannabinoid receptor 2 [4]): 58%
14 | CC(C)S(=O)(=O)c1ccc2c(c1)nc(CC(C)(C)C)n2CC1CC1 | 3.2 nM | 23 µL/min/mg | 144 µL/min/mg | Ki (Cannabinoid receptor 1 [5]): > 10000 nM
15 | CC(C)(C)Cc1nc2cc(S(=O)(=O)CC(C)(C)O)ccc2n1CC1CC1 | 3.1 nM | < 7 µL/min/mg | 244 µL/min/mg | 
16 | CCS(=O)(=O)c1ccc2c(c1)nc(C1CCCC1)n2CC1CC1 | 25 nM | 11 µL/min/mg | 106 µL/min/mg | 
17 | CCS(=O)(=O)c1ccc2c(c1)nc(C(C)(C)C)n2CC1CC1 | 2.7 nM | 9 µL/min/mg | 12 µL/min/mg | EC50 (Cannabinoid receptor 1 [7]): > 10 nM; Ki (Cannabinoid receptor 1 [5]): > 20000 nM; bioavailability [6]: 100%; BPR (Rattus norvegicus): 30; clearance [8]: 20 mL/min/kg; Vd [9]: 3.2 L/kg; half-life [10]: 1.9 h
18 | CCS(=O)(=O)c1ccc2c(c1)nc(C(C)(C)C)n2C[C@@H]1CCCO1 | 11 nM | 12 µL/min/mg | 17 µL/min/mg | clearance [8]: 27.1 mL/min/kg; Vd [9]: 1 L/kg; half-life [10]: 0.4 h; Kp uu [11]: 1
19 | CCS(=O)(=O)c1ccc2c(c1)nc(C1CCC1)n2CC1CC1 | 82 nM | 8 µL/min/mg | 33 µL/min/mg | 
20 | CN(C)CCS(=O)(=O)c1ccc2c(c1)nc(CC(C)(C)C)n2CC1CC1 | 32 nM | 79 µL/min/mg | 170 µL/min/mg | 
21 | CCS(=O)(=O)c1ccc2c(c1)nc(CC(C)(C)C)n2CC1CC1 | 2.9 nM | 8.4 µL/min/mg | 38 µL/min/mg | 
